Values quoted from earlier work, collected in patent US6770269B1, “Cosmetic and dermatological light-protective formulations containing triazine derivatives and one or several esters of unbranched-chain carboxylic acids and branched-chain alcohols” (Beiersdorf AG, priority 1998, dated 2004).

corresponding dissolved, and therefore active, UV filter substance (corresponds to the maximum solubility in known solvents): 1-1.5 % by weight | maximum amount of the filter that known solvents can dissolve (known solvents (lipids), prior art): about 15 % by weight
Compound: CCCCC(CC)COC(=O)c1ccc(Nc2nc(Nc3ccc(C(=O)OCC(CC)CCCC)cc3)nc(Nc3ccc(C(=O)OCC(CC)CCCC)cc3)n2)cc1 (centres unmarked) [UVINUL7 T 150, tris(2-ethylhexyl) 4,4′,4″-(1,3,5-triazine-2,4,6-triyltriimino)trisbenzoate]
